In patent publication US20030078304A1, “Method of inhibiting the expression of inflammatory cytokines and chemokines” (priority 2000, published 2003):

System: NF-κB
Experiment: NF-κB-dependent luciferase reporter gene assay in UV-C exposed HeLa cells
Format: cell-based, human
Method: HeLa cells were transfected with a NF-κB-dependent reporter gene and exposed to UV-C 24 hours after transfection. Pretreatment with Astaxanthin was done 3 hours prior to irradiation, where indicated. Cells were harvested and luciferase activity was measured 14-18 hours following exposure. The ratio between Firefly and Renilla luciferase activity is represented as fold activation over the activity in unstimulated control cells. The standard error is based on two identical experiments.
The human […] cell line Hela Tet/off was cultured in MEM alpha medium supplemented with 10% fetal calf serum, penicillin and streptomycin (Gibco Grand Island, N.Y.). The day before transfection, cells were plated on 6 cm dishes in a medium containing 2.5% fetal calf serum. On the day of transfection, the cell culture medium was changed to fresh medium (2.5% fetal calf serum).
A stock solution of Astaxanthin was prepared by dissolving synthetic Astaxanthin (Sigma) in 99.6% ethanol. The concentration of Astaxanthin was measured by spectrophotometry, and the absorbance maximum at 474-479 run was used to calculate the concentration, according to the formula: Absmax/210.
The 6XκB-Luc plasmid contains a firefly luciferase reporter gene driven by 6 NF-κB binding sites cloned upstream of a TK promoter (Meyer et al. 1993). […]

In the case of `CC1=C(/C=C/C(C)=C/C=C/C(C)=C/C=C/C=C(C)/C=C/C=C(C)/C=C/C2=C(C)C(=O)[C@@H](O)CC2(C)C)C(C)(C)C[C@H](O)C1=O` [Astaxanthin], the “effect on the activation of NF-κB effected by UV exposure” value (HeLa cells transfected with NF-κB-dependent reporter gene, UV-C, pretreatment 3 hours prior to irradiation (FIG. 1)) is reported as “inhibits the activation of NF-κB effected by UV exposure” and the “repression of UV-C induced activation of NF-κB-dependent reporter gene” value (HeLa cells, 6xκB-Luc reporter, UV-C 10 J/m^2, Astaxanthin pretreatment 3 hours at the highest concentration, luciferase 14-18 hours after exposure) is reported as roughly 3 fold.
